# Measurements reported in PubChem BioAssay AID1902 (Broad Institute, 2009).
# The source made the active and inactive calls.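 How the source made its calls: active means EC50 no more than a set limit of log units above the highest dose; inactive means the rest.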
# Target: S. pyogenes SKKanGAS, kanamycin survival, BacTiterGlo, 6 h
# Experiment: S. pyogenes SKKanGAS kanamycin growth inhibitors – SKKanGAS strain, luminescence, dose confirmation, streptokinase promoter inhibitor project, dose response (AID 1902);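 further: lower survival reflects blocked streptokinase promoter driving kanamycin resistance gene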
row,SMILES,EC50
1,Cc1cc(N/N=C/c2ccc(O)c(C)c2O)nc(-c2ccccc2O)n1,3.09 µM
2,COCCNC(=O)c1c(NC(=O)c2ccc(Br)o2)n(Cc2ccccc2)c2nc3ccccc3nc12,2.44 µM
3,CN(C)[C@@H]1C(=O)C(C(N)=O)=C(O)[C@@]2(O)C(=O)C3=C(O)c4c(O)cccc4[C@@](C)(O)C3[C@H](O)C12 (some centres not stated),0.095 µM
4,CCCCN(CC)S(=O)(=O)c1ccc(C(=O)Nc2nnc(-c3ccccc3Cl)o2)cc1,0.226 µM
5,CCCCNC(=O)c1ccc(NC(C)=O)c(Cl)c1,> 15 µM (inactive)
6,CCc1nnc(NC(=O)c2ccc(S(=O)(=O)N(C)c3ccccc3)cc2)o1,4.71 µM
7,O=C(COc1cccc(Cl)c1)Nc1ccccc1N1CCCCC1,5.29 µM
8,CCCCCCSc1cc(-c2nc3cnccn3c2NCc2ccccc2)ccc1OC,3.61 µM
9,CCC(=O)Nc1nc2ccccc2n1Cc1ccccc1Cl,8.22 µM
10,CCn1cc(C(=O)O)c(=O)c2cc(F)c(N/N=C/c3ccccc3[N+](=O)[O-])cc21,4.39 µM
11,COc1ccc(C(=O)CSc2[nH]c(=O)cc(C(F)(F)F)c2C#N)cc1,7.06 µM
12,CCOc1ccc(N(CC(=O)NCc2ccc(C)cc2)S(=O)(=O)c2c(C)[nH]c(=O)[nH]c2=O)cc1,> 15 µM (inactive)
13,CC1CC(C)CN(S(=O)(=O)c2ccc(C(=O)Nc3nnc(C4CC4)o3)cc2)C1 (configuration not stated),1.03 µM
14,O=[N+]([O-])c1ccc(/C=[N+](\[O-])CCO)o1,5.78 µM
15,Cc1cc(Cl)c2oc(C(=O)N3CCC(O)(c4ccccc4)CC3)c(C)c2c1,7.31 µM
16,O=c1c2cc(Br)ccc2nc(-c2ccc(Cl)cc2)n1O,1.07 µM
17,COc1ccc(/C=C2/Sc3ccc(C(=O)N4CCc5ccccc5C4)cc3NC2=O)cc1,1.65 µM
18,Cc1ccc(OCCSc2nc(NC(C)C)nc(NC(C)C)n2)cc1,4.4 µM
19,CCCc1cc(=O)n2[nH]cc(-c3ccc(Cl)cc3)c2n1,1.78 µM
20,Nc1nonc1-n1nnc(C(=O)N/N=C/c2cc(Cl)ccc2O)c1CN1CCCCCC1,5.76 µM
21,O=C(COc1ccccc1)NC1C(=O)N2C(C(=O)O)=C(Cl)CSC12 (configuration not stated),0.128 µM
22,Cc1ccc(C(C)C)cc1NC(=O)Nc1ccc([N+](=O)[O-])cc1,3.75 µM

row,SMILES,EC50
1,C=C1SC(=Nc2ccccc2Cl)N(C(=O)c2sc3ccccc3c2Cl)C12CCCCC2,3.48 µM
2,Cc1nc2c(-c3ccccc3)c(C)[nH]n2c(=O)c1Cc1ccccc1,6.27 µM
3,Oc1cc2ccccc2cc1-c1n[nH]c(=S)o1,11.1 µM
4,S=c1[nH]nc(-c2cc(-c3ccccc3)n[nH]2)n1/N=C/c1ccc(Br)s1,5.22 µM
5,CC(C)[C@@H](C(=O)NC1CCCC1)N1C(=O)N2CCc3c([nH]c4ccccc34)[C@@]2(C)C1=O,> 15 µM (inactive)
6,O=C(CNc1ccc2ccccc2c1)N/N=C/c1ccc([N+](=O)[O-])o1,14.3 µM
7,CCCCCCCC(=O)NNC(=O)c1c(O)c2ccccc2n(CC)c1=O,1.3 µM
8,Cc1ccc2nc(-c3ccc(N)cc3)sc2c1,> 15 µM (inactive)
9,CCCCCCCn1c(=O)c(C(=O)Nc2cnccn2)c(O)c2ccccc21,2.16 µM
10,N#Cc1ccc(Cl)cc1NC(=O)CSc1nc2nc(-c3cccs3)cc(C(F)(F)F)c2c(=O)[nH]1,4.97 µM
11,Cc1cccc(C(=O)CC(=O)c2cc(Cl)ccc2O)c1,1.06 µM
12,C/C(N)=C(/C#N)C(=O)CSc1nc2scc(-c3ccc(F)cc3)c2c(=O)n1C,2.1 µM
13,Cc1cccc(-n2ncc3c2CCCC3NC(=O)CCN2Cc3ccccc3C2=O)c1C (configuration not stated),> 15 µM (inactive)
14,Cc1[nH][nH]c(=O)c1C(c1c(C)[nH][nH]c1=O)c1cn(Cc2ccc(Cl)c(Cl)c2)c2ccccc12,3.07 µM
15,Cc1nnc(NC(=O)c2ccc(S(=O)(=O)N(C)Cc3ccccc3)cc2)o1,4.71 µM
16,COc1ccc(-c2oc3ncn(Cc4ccco4)c(=N)c3c2-c2ccc(OC)cc2)cc1,4.76 µM
17,FC(F)(F)c1cc(Nc2ccccc2)nc(-c2ccccn2)n1,15.2 µM
18,C[C@H]1COc2c(C3(N)CC3)c(F)cc3c(=O)c(C(=O)O)cn1c23,6.2 µM
19,Cc1noc(C)c1C(=O)Nc1nccs1,> 15 µM (inactive)
20,COc1cc(OC)c(NC(=O)c2sc3ncn(CC(=O)N4CCN(c5ccccn5)CC4)c(=O)c3c2C)cc1Cl,6.52 µM
21,Nc1nonc1-n1nnc(C(=O)N/N=C/c2cc(Br)ccc2O)c1CNc1ccccc1,0.394 µM
22,CC(CNC(=S)Nc1cc(F)cc(F)c1)CSc1ccc(Cl)cc1 (configuration not stated),8.56 µM

row,SMILES,EC50
1,CCc1cc(-c2n[nH]c(C)c2Oc2ccc(C(C)C)cc2)c(O)cc1O,1.85 µM
2,COC(=O)C1(C(C[N+](=O)[O-])c2ccc(C)cc2)C(=O)NCC1c1ccco1 (configuration not stated),7.39 µM
3,CCCOc1ccc(-c2nc(OC)c3ccccc3n2)cc1,> 15 µM (inactive)
4,c1ccc(Nc2nc(N3CCCCC3)nc(N3CCCCC3)n2)cc1,8.25 µM
5,Cc1[nH]c(-c2ccc(F)cc2)cc1C(=O)N1CCN(c2cccc(Cl)c2)CC1,4.92 µM
6,CCCCn1c(=O)c(C(=O)NCCc2ccccc2)c(O)c2ccccc21,3.73 µM
7,O=C(NC(=S)NNC(=O)[C@H]1C[C@@H]1c1ccccc1)c1ccc(F)cc1,0.715 µM
8,CN(/N=C/c1cc(Br)cc(Br)c1O)c1cccc(C(F)(F)F)n1,0.544 µM
9,Cc1ccccc1OCC(=O)NC(=S)Nc1ccc(Br)c(C)n1,> 15 µM (inactive)
10,CCC1CCCCN1S(=O)(=O)c1ccc(C(=O)Nc2nnc(C3=COCCO3)o2)cc1 (configuration not stated),5.72 µM
11,FC(F)(F)c1cccc(NC(=S)Nc2ccc(Cl)c(Cl)c2)c1,2.45 µM
12,O=C(O)c1ccc(CSc2nc(-c3ccc(Cl)cc3)cc(C(F)(F)F)n2)cc1,2.69 µM
13,Cc1ccsc1C(=O)N(c1nc2ccccc2s1)c1c(C)cccc1C,4 µM
14,COc1cc([N+](=O)[O-])cc(/C=N/NC(=O)c2cncc(Br)c2)c1O,0.97 µM
15,Cc1ccc(-c2cc3nc(-c4ccc(Br)cc4)cc(N)n3n2)cc1,0.561 µM
16,Cc1ccc(Cl)cc1N1CCN(C(=O)c2cccc3c(=O)c(C)c(-c4ccccc4)oc23)CC1,4 µM
17,O=C(Nc1nc2ccc(F)cc2s1)c1ccccn1,0.694 µM
18,Cc1ccc(SC/C(O)=C(\C#N)c2nc3ccccc3s2)cc1,2.83 µM
19,CCN1CCN(Cc2ccc(NC(=O)c3ccc(C)c(NC(=O)C(=O)c4c[nH]c5ccccc45)c3)cc2C(F)(F)F)CC1,3.34 µM
20,NS(=O)(=O)c1ccc(N2N=C(c3ccc(Br)cc3)CC2c2ccc(F)cc2)cc1 (configuration not stated),2.21 µM
21,CC(=O)NC(c1ccccc1)c1cc(Cl)c2cccnc2c1O (configuration not stated),1.17 µM
22,COc1ccc(NC(=O)c2cccc(-c3ccc(O)cc3)c2)cn1,13 µM

row,SMILES,EC50
1,O=C(OCc1csc(Nc2ccccc2)n1)c1ccc(Cl)cc1,14.3 µM
2,CC1=NN(c2ccc([N+](=O)[O-])cc2)C(=O)/C1=C\N(C)C,7.94 µM
3,CC(C)CC(=O)NC(NC(=S)Nc1sc2c(c1C#N)CCCC2)C(Cl)(Cl)Cl (configuration not stated),1.66 µM
4,C=CC(C)(C)c1c(O)c(CC=C(C)C)c(O)c2c(=O)c3ccc(O)c(O)c3oc12,1.8 µM
5,CCOc1cc(/C=N/Nc2cccc(C(=O)O)c2)ccc1OC(=O)c1ccccc1,5.18 µM
6,COc1cccc(NC(=O)NCCCCc2ccccc2)c1,> 15 µM (inactive)
7,CCCSc1nsc(NC(=O)Nc2ccc(F)cc2F)n1,5.66 µM
8,N#CC1=C(c2ccccc2)/C(=C/c2ccccc2)OC1=O,9.97 µM
9,Cc1ccc(Cn2c(C(CO)Nc3nc(-c4ccc(F)cc4)cs3)nc3ccccc32)cc1 (configuration not stated),3.35 µM
10,Cc1[nH]n(-c2ccccc2)c(=O)c1/C=N\NC(=O)C1COc2ccccc2O1 (configuration not stated),1.37 µM
11,CC(Oc1ccc(Cl)cc1Cl)C(=O)NC1=NN(c2ccccc2)C(=O)C1 (configuration not stated),2.92 µM
12,Cc1cc(O)c(C(C)C)cc1C1(c2cc(C(C)C)c(O)cc2C)OC(=O)c2ccccc21,1.8 µM
13,O=C(Nc1ccc(Cl)c(Cl)c1)O/N=C/c1ccncc1,2.38 µM
14,O=C(CSc1nnc(CNC(=O)c2ccccc2)o1)NCCc1ccccc1,> 15 µM (inactive)
15,Cc1c(Cl)cnn1CC(=O)NC1C(=O)N2C(C(=O)O)=C(CSc3nnnn3C)CSC12 (configuration not stated),< 0.06 µM
16,COc1ccccc1NC(=O)Nc1nc(CC(=O)Nc2cc(F)ccc2F)cs1,8.85 µM
17,Cc1cc(C(F)(F)F)c(C#N)c(SCC(=O)Nc2nc3cc(Br)ccc3s2)n1,5.7 µM
18,O=c1c2c(nc3c(-c4ccc(Cl)cc4)c[nH]n13)CCC2,3.38 µM
19,COc1ccccc1-c1nnc(NC(=O)CCS(=O)(=O)c2ccccc2)o1,> 15 µM (inactive)
20,COc1ccc(C(=O)Nc2nnc(-c3ccccc3)o2)cc1OC,5.56 µM
21,Cc1ccc(C2Oc3ccccc3C3=C2C(c2cccs2)n2ncnc2N3)cc1 (configuration not stated),3.76 µM
22,COc1cccc(/C=N/Nc2nc(Nc3ccc([N+](=O)[O-])cc3)nc(N3CCCC3)n2)c1O,1.18 µM

row,SMILES,EC50
1,CCN1/C(=C/C=C/c2sc3ccccc3[n+]2CC)Sc2ccccc21,2.15 µM
2,Nc1c(C(=O)Nc2nc3ccccc3s2)sc2nc(-c3cccs3)ccc12,6.67 µM
3,Cc1nn(Cc2c(Cl)cccc2Cl)c(C)c1NC(=O)c1cn(-c2ccccc2)nc1-c1ccccc1,9.33 µM
4,O=C(N/N=C/c1cc(Cl)cc([N+](=O)[O-])c1O)C(O)(c1ccccc1)c1ccccc1,3.38 µM
5,CCc1ccc2[nH]c(O)c(N=Nc3nc(-c4ccccc4)cs3)c2c1,8.8 µM
6,CCN(CC)CCN(C(=O)CCS(=O)(=O)c1ccccc1)c1nc2cc(C)cc(C)c2s1,> 15 µM (inactive)
7,CC(C)COC(=O)c1cccc2c1-c1ccccc1/C2=N\O,4.99 µM
8,CCC(C)c1ccccc1NS(=O)(=O)c1cnn(CC)c1 (configuration not stated),> 15 µM (inactive)
9,Cc1cc(C)c2nc(NNC(=O)c3cc(=O)c4ccccc4o3)sc2c1,0.165 µM
10,Cn1c(-c2c(N)n(C3CCCC3)c3nc4ccccc4nc23)nc2ccccc21,1.12 µM
11,Cc1ccc(C(=O)C2=C(O)C(=O)N(Cc3ccco3)C2c2cccc(Br)c2)o1 (configuration not stated),6.67 µM
12,Clc1cc(CSc2ccccc2)nc(-c2ccccc2)n1,8.95 µM
13,Cc1cc(/C=C2\SC(=S)NC2=O)c(C)n1-c1ccc(O)cc1,1.1 µM
14,S=C(NCC1CCCCC1)Nc1ccc(Oc2ccccc2)cc1,11 µM
15,S=C(Nc1ccc(Cl)cc1)c1nc2ccccc2[nH]1,0.183 µM
16,O=C(Nc1ccc(OC(F)F)cc1)Nc1cccc(C(F)(F)F)c1,6.7 µM
17,CCCCNC(=O)c1sc(=S)n2c1[nH]c(=O)c1ccccc12,9.08 µM
18,Cn1c(C(=O)N2CCN(c3ccc([N+](=O)[O-])cc3)CC2)cc2c(=O)[nH]c3ccccc3c21,4.56 µM
19,O=C(Nc1nnc(C2=COCCO2)o1)c1cccc(F)c1,2.37 µM
